Patent US20100305173A1, “HYDROXYETHYLAMINO SULFONAMIDE DERIVATIVES” (CoNCERT Pharmaceuticals, Inc., priority 2009, published 2010)
Like-named read-outs stand apart in the source and are kept apart here.

Assay: Metabolic stability of test compounds in human liver microsomes
Type: in vitro ADME
Conditions: for half-life: human, liver microsomes, pH 7.4, half-life in human liver microsomes
Experimental: Determination of Metabolic Stability of Test Compounds in
Human Liver Microsomes. Human liver microsomes (20 mg/mL) were obtained from Xenotech, LLC (Lenexa, Kans.). β-nicotinamide adenine dinucleotide phosphate, reduced form (NADPH), magnesium chloride (MgCl2), and dimethyl sulfoxide (DMSO) were purchased from Sigma-Aldrich.
7.5 mM stock solutions of test compounds were prepared in DMSO. […] The diluted microsomes (375 μL) were added to wells of a 96-well deep-well polypropylene plate in triplicate. […] Reactions were initiated by addition of 125 μL of pre-warmed NADPH solution. The final reaction volume was 0.5 mL and contained 0.5 mg/mL human liver microsomes, 0.25-1.0 μM test compound, and 2 mM NADPH in 0.1 M potassium phosphate buffer, pH 7.4, and 3 mM MgCl2. The reaction mixtures were incubated at 37° C., and 50 μL aliquots were removed at 0, 5, 10, 20, and 30 minutes and added to shallow-well 96-well plates which contained 50 μL of ice-cold ACN with internal standard to stop the reactions. The plates were stored at 4° C. for 20 minutes after which 100 μL of water was added to the wells of the plate before centrifugation to pellet precipitated proteins. Supernatants were transferred to another 96-well plate and analyzed for amounts of parent compound remaining by LC-MS/MS using an Applied Bio-systems API 4000 mass spectrometer. 7-ethoxycoumarin (1 μM) was used as the positive control substrate.
Data analysis: The in vitro half-lives (tii2s) for test compounds were calculated from the slopes of the linear regression of % parent remaining (ln) vs incubation time relationship using the following formula: […]
Data analysis was performed using Microsoft Excel Software.
FIG. 1, FIG. 2, FIG. 3, Table 2, Table 3 and Table 4 show the results of this experiment.

[1] = Table 2, Exp A, read-out: T1/2 (min) Exp A
[2] = Table 2, Exp B, read-out: T1/2 (min) Exp B
[3] = Table 2, calculated average of Exp A and B, read-out: T1/2 (min) Average
[4] = Table 4, Expt G, read-out: T1/2 (min) Expt G
[5] = Table 4, Expt H, read-out: T1/2 (min) Expt H
[6] = Table 4, Expt I, read-out: T1/2 (min) Expt I
[7] = Table 4, Expt J, read-out: T1/2 (min) Expt J
[8] = Table 4, calculated average of Expt E-J, read-out: T1/2 (min) Average ± SD
[9] = Table 3, Exp C, read-out: T1/2 (min) Exp C
[10] = Table 3, Exp D, read-out: T1/2 (min) Exp D
[11] = Table 3, calculated average of Exp C and D, read-out: T1/2 (min) Average

half-life [1] [min] | half-life [2] [min] | half-life [3] [min] | half-life [6] [min] | half-life [7] [min] | half-life [8] [min] | half-life [9] [min] | half-life [10] [min] | half-life [11] [min] | SMILES | further results
9 | 4.3 | 6.6 | 7.2 | 7.1 | 6.3 ± 1 | – | – | – | [2H]C([2H])([2H])C([2H])(C([2H])([2H])[2H])C([2H])([2H])N(C[C@@H](O)[C@H](Cc1ccccc1)NC(=O)O[C@]1([2H])[C@@H]2CCO[C@@H]2OC1([2H])[2H])S(=O)(=O)c1ccc(NC(C)=O)cc1 [Compound 227, (3R,3aS,6aR)-hexahydrofuro[2,3-b]furan-3-yl-((2S,3R)-4-(4-acetamido-N-isobutylphenylsulfonamido)-3-hydroxy-1-phenylbutan-2-yl) carbamate-d12] | half-life [4]: 5.7 min; half-life [5]: 5.3 min
1.9 | 1.5 | 1.7 | – | – | – | – | – | – | CCOC(=O)NCc1coc2ccc(S(=O)(=O)N(CC(C)C)C[C@@H](O)[C@H](Cc3ccccc3)NC(=O)O[C@H]3CO[C@H]4OCC[C@H]43)cc12 [Compound 301, reference compound] | –
– | – | – | 21.5 | 46.7 | 23 ± 5.7 | – | – | – | [2H]C([2H])([2H])C([2H])(C([2H])([2H])[2H])C([2H])([2H])N(C[C@@H](O)[C@H](Cc1ccccc1)NC(=O)O[C@]1([2H])[C@@H]2CCO[C@@H]2OC1([2H])[2H])S(=O)(=O)c1ccc2occc2c1 [Compound 106, (3R,3aS,6aR)-hexahydrofuro[2,3-b]furan-3-yl-((2S,3R)-3-hydroxy-4-(N-isobutylbenzofuran-5-sulfonamido)-1-phenylbutan-2-yl)carbamate-d12] | increase in stability over darunavir and brecanavir (human liver microsomes, versus darunavir and brecanavir, in words): very significant increase in stability; half-life (Table 4, Expt E, read-out: T1/2 (min) Expt E): 31.2 min; half-life (Table 4, Expt F, read-out: T1/2 (min) Expt F): 21.2 min; half-life [5]: 18.1 min
2.4 | 1.5 | 2 | – | – | – | – | – | – | [2H]C([2H])([2H])C([2H])(C([2H])([2H])[2H])C([2H])([2H])N(C[C@@H](O)[C@H](Cc1ccccc1)NC(=O)O[C@]1([2H])[C@@H]2CCO[C@@H]2OC1([2H])[2H])S(=O)(=O)c1ccc2occ(CNC(=O)OCC)c2c1 [Compound 235, ((5-(N-((2R,3S)-3-(((((3R,3aS,6aR)-hexahydrofuro[2,3-b]furan-3-yl)oxy)carbonyl)amino)-2-hydroxy-4-phenylbutyl)-isobutylsulfamoyl)benzofuran-3-yl)methyl)carbamic acid ethyl ester-d12] | –
– | – | – | – | – | – | 11.7 | 15.1 | 13.4 | [2H]C([2H])([2H])C([2H])(C([2H])([2H])[2H])C([2H])([2H])N(C[C@@H](O)[C@H](Cc1ccccc1)NC(=O)O[C@@]1([2H])C([2H])([2H])O[C@@]2([2H])OC([2H])([2H])C([2H])([2H])[C@]21[2H])S(=O)(=O)c1ccc2ncsc2c1 [Compound 230, (3R,3aS,6aR)-hexahydrofuro[2,3-b]furan-3-yl-((2S,3R)-3-hydroxy-4-(N-isobutylbenzo[d]thiazole-6-sulfonamido)-1-phenylbutan-2-yl)carbamate-d18] | increase in stability over darunavir (human liver microsomes, average of two runs, versus darunavir): 36%; increase in stability over 302, its non-deuterated counterpart (human liver microsomes, versus 302, in words): an even greater increase in stability
7.1 | 3.6 | 5.4 | – | – | – | – | – | – | [2H]C([2H])(N(C[C@@H](O)[C@H](Cc1ccccc1)NC(=O)O[C@]1([2H])[C@@H]2CCO[C@@H]2OC1([2H])[2H])S(=O)(=O)c1ccc(NC(C)=O)cc1)C1([2H])C([2H])([2H])C([2H])([2H])C([2H])([2H])C1([2H])[2H] [Compound 236, (3R,3aS,6aR)-hexahydrofuro[2,3-b]furan-3-yl-((2S,3R)-4-(4-acetamido-N-(cyclopen-tylmethyl)phenylsulfonamido)-3-hydroxy-1-phenylbutan-2-yl)carbamate-d14] | –
4.7 | 2.4 | 3.5 | – | – | – | – | – | – | [2H]C([2H])([2H])C([2H])(C([2H])([2H])[2H])C([2H])([2H])N(C[C@@H](O)[C@H](Cc1ccccc1)NC(=O)O[C@]1([2H])[C@@H]2CCO[C@@H]2OC1([2H])[2H])S(=O)(=O)c1ccc(NC(=O)C2CC2)cc1 [Compound 233, (3R,3aS,6aR)-hexahydrofuro[2,3-b]furan-3-yl-((2S,3R)-4-(4-(cyclopropanecarbox-amido)-N-isobutylphenylsulfonamido)-3-hydroxy-1-phenylbutan-2-yl)carbamate-d12] | –
– | – | – | 2 | 2 | 2 | – | – | – | Cc1nc(COc2ccc(C[C@H](NC(=O)O[C@H]3CO[C@H]4OCC[C@H]43)[C@H](O)CN(CC(C)C)S(=O)(=O)c3ccc4c(c3)OCO4)cc2)cs1 [Brecanavir, N-[3-[N-(1,3-Benzodioxol-5-ylsulfonyl)-N-isobutylamino]-2(R)-hydroxy-1-(S)-[4-(2-methylthiazol-4-ylmethoxy)benzyl]propyl]carbamic acid (3R,3aS,6aR)-perhydrofuro[2,3-b]furan-3-yl ester, reference compound] | –
– | – | – | – | – | – | 8.3 | 7.9 | 8.1 | [2H]C([2H])([2H])C([2H])(C([2H])([2H])[2H])C([2H])([2H])N(C[C@@H](O)[C@H](Cc1ccccc1)NC(=O)O[C@]1([2H])[C@H]2[C@H](OC([2H])([2H])C2([2H])[2H])OC1([2H])[2H])S(=O)(=O)c1ccc2ncsc2c1 [Compound 237, (3R,3aS,6aR)-hexahydrofuro[2,3-b]furan-3-yl-((2S,3R)-3-hydroxy-4-(N-isobutylbenzo[d]thiazole-6-sulfonamido)-1-phenylbutan-2-yl)carbamate-d16] | –
– | – | – | 21.1 | 19.9 | 20.5 | – | – | – | CC(C)CN(C[C@@H](O)[C@H](Cc1ccccc1)NC(=O)O[C@H]1CO[C@H]2OCC[C@H]21)S(=O)(=O)c1ccc2occc2c1 [Compound 303, reference compound] | –
– | – | – | 6 | 5.8 | 6.2 ± 0.4 | 8.7 | 8.6 | 8.6 | [2H]C([2H])([2H])C([2H])(C([2H])([2H])[2H])C([2H])([2H])N(C[C@@H](O)[C@H](Cc1ccccc1)NC(=O)O[C@]1([2H])[C@@H]2CCO[C@@H]2OC1([2H])[2H])S(=O)(=O)c1ccc2ncsc2c1 [Compound 229, (3R,3aS,6aR)-hexahydrofuro[2,3-b]furan-3-yl-((2S,3R)-3-hydroxy-4-(N-isobutylbenzo[d]thiazole-6-sulfonamido)-1-phenylbutan-2-yl)carbamate-d12] | half-life [4]: 6.4 min; half-life [5]: 6.7 min
– | – | – | 5.6 | 6.4 | 6 | 8.2 | 8.7 | 8.5 | CC(C)CN(C[C@@H](O)[C@H](Cc1ccccc1)NC(=O)O[C@H]1CO[C@H]2OCC[C@H]21)S(=O)(=O)c1ccc2ncsc2c1 [Compound 302, reference compound] | –
